Converted amounts (≈) assume the structure as drawn. The source made the active and inactive calls. The calls are words filed in the database; no cut-off is given here.
How the values were obtained:
[1] = Aqueous solubility of the compound at pH 6.5 at > 0.5 mg/ml; type: physicochemical; conditions: buffer
[2] = system: Escherichia coli; assay: Antibacterial activity against Escherichia coli ATCC 25922 assessed as inhibition in bacterial growth incubated for 20 to 24 hrs by CLSI based broth microdilution method; type: functional; conditions: time 20-24 hrs
[3] = system: Acinetobacter baumannii; assay: Antibacterial activity against Acinetobacter baumannii ATCC 19606 assessed as inhibition in bacterial growth incubated for 20 to 24 hrs by CLSI based broth microdilution method; type: functional; conditions: time 20-24 hrs
[4] = system: Klebsiella pneumoniae; assay: Antibacterial activity against Klebsiella pneumoniae ATCC BAA-1705 assessed as inhibition in bacterial growth incubated for 20 to 24 hrs by CLSI based broth microdilution method; type: functional; conditions: time 20-24 hrs
[5] = system: Pseudomonas aeruginosa; assay: Antibacterial activity against Pseudomonas aeruginosa ATCC 27853 assessed as inhibition in bacterial growth incubated for 20 to 24 hrs by CLSI based broth microdilution method; type: functional; conditions: time 20-24 hrs
[6] = molecular target: DNA gyrase (Escherichia coli, UniProt P0AES4+P0AES6); assay: Inhibition of Escherichia coli DNA gyrase incubated for 80 mins by Transcreener ADP2 FI assay; type: protein-complex assay
[7] = molecular target: T1, hERG (KCNH2) (Homo sapiens, UniProt Q12809); assay: Inhibition of hERG potassium channel expressed in CHO cells at 10 uM by electrophysiological patch clamp assay relative to control; type: toxicity, cell-based; conditions: CHO cells expressing hERG
T1 sequence (Q12809 whole entry): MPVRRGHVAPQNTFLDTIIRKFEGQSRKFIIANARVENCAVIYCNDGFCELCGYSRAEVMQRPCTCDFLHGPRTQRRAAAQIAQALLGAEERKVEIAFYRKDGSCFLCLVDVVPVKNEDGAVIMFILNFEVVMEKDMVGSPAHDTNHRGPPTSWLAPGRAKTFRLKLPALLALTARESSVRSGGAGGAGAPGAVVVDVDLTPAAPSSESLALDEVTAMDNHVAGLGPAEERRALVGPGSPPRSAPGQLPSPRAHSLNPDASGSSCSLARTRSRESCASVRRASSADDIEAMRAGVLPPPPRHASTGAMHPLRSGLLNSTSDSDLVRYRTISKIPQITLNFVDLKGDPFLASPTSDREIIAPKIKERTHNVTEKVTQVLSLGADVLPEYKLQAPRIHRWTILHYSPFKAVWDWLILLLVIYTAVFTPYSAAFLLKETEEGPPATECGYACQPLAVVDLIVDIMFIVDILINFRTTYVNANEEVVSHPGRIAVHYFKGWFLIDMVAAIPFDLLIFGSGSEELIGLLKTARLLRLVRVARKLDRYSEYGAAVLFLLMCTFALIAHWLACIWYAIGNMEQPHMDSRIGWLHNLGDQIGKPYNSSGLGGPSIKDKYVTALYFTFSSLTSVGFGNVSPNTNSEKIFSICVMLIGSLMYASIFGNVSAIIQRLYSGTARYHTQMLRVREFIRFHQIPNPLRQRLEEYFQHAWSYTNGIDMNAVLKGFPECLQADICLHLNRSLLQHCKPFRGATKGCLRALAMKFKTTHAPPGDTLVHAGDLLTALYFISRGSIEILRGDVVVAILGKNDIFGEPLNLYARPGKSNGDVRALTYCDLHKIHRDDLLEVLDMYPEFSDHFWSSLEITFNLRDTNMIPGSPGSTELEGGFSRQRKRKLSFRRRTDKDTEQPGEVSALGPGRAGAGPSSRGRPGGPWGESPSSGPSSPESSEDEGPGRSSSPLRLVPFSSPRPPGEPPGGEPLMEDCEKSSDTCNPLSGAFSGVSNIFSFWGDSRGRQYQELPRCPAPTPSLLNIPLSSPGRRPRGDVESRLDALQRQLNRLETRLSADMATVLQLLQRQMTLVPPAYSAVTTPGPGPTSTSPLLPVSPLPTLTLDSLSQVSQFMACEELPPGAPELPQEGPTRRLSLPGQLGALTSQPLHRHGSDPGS

[8] = system: Escherichia coli; assay: Antibacterial activity against Escherichia coli K-12 BW25113 assessed as inhibition in bacterial growth incubated for 20 to 24 hrs by CLSI based broth microdilution method; type: functional; conditions: Escherichia coli, K-12 BW25113, time 20-24 hrs; read-out: MIC
[9] = system: Escherichia coli; assay: Antibacterial activity against Escherichia coli K-12 BW25113 deltaTolC assessed as inhibition in bacterial growth incubated for 20 to 24 hrs by CLSI based broth microdilution method; type: functional; conditions: time 20-24 hrs
[10] = system: Escherichia coli; assay: Antibacterial activity against Escherichia coli ATCC 35218 assessed as inhibition in bacterial growth incubated for 20 to 24 hrs by CLSI based broth microdilution method; type: functional; conditions: Escherichia coli, ATCC 35218, time 20-24 hrs; read-out: MIC
[11] = system: Escherichia coli; assay: Antibacterial activity against Escherichia coli ATCC BAA-2340 assessed as inhibition in bacterial growth incubated for 20 to 24 hrs by CLSI based broth microdilution method; type: functional; conditions: Escherichia coli, ATCC BAA-2340, time 20-24 hrs; read-out: MIC
[12] = system: Acinetobacter baumannii; assay: Antibacterial activity against Acinetobacter baumannii ATCC 51432 assessed as inhibition in bacterial growth incubated for 20 to 24 hrs by CLSI based broth microdilution method; type: functional; conditions: Acinetobacter baumannii, ATCC 51432, time 20-24 hrs; read-out: MIC
[13] = system: Acinetobacter baumannii; assay: Antibacterial activity against Acinetobacter baumannii ATCC BAA-747 assessed as inhibition in bacterial growth incubated for 20 to 24 hrs by CLSI based broth microdilution method; type: functional; conditions: Acinetobacter baumannii, ATCC BAA-747, time 20-24 hrs; read-out: MIC
[14] = system: Klebsiella pneumoniae; assay: Antibacterial activity against Klebsiella pneumoniae ATCC 10031 assessed as inhibition in bacterial growth incubated for 20 to 24 hrs by CLSI based broth microdilution method; type: functional; conditions: time 20-24 hrs
[15] = system: Klebsiella pneumoniae; assay: Antibacterial activity against Klebsiella pneumoniae ATCC 700603 assessed as inhibition in bacterial growth incubated for 20 to 24 hrs by CLSI based broth microdilution method; type: functional; conditions: Klebsiella pneumoniae, ATCC 700603, time 20-24 hrs; read-out: MIC
[16] = system: Klebsiella pneumoniae; assay: Antibacterial activity against Klebsiella pneumoniae ATCC BAA-2146 assessed as inhibition in bacterial growth incubated for 20 to 24 hrs by CLSI based broth microdilution method; type: functional; conditions: Klebsiella pneumoniae, ATCC BAA-2146, time 20-24 hrs; read-out: MIC
[17] = system: Pseudomonas aeruginosa; assay: Antibacterial activity against Pseudomonas aeruginosa NCTC 13437 assessed as inhibition in bacterial growth incubated for 20 to 24 hrs by CLSI based broth microdilution method; type: functional; conditions: Pseudomonas aeruginosa, NCTC 13437, time 20-24 hrs; read-out: MIC
[18] = system: Pseudomonas aeruginosa; assay: Antibacterial activity against Pseudomonas aeruginosa NCTC 11451 assessed as inhibition in bacterial growth incubated for 20 to 24 hrs by CLSI based broth microdilution method; type: functional; conditions: Pseudomonas aeruginosa, NCTC 11451, time 20-24 hrs; read-out: MIC
[19] = system: Staphylococcus aureus; assay: Antibacterial activity against Staphylococcus aureus ATCC BAA-1556 assessed as inhibition in bacterial growth incubated for 20 to 24 hrs by CLSI based broth microdilution method; type: functional; conditions: Staphylococcus aureus, ATCC BAA-1556, time 20-24 hrs; read-out: MIC
[20] = system: Staphylococcus aureus; assay: Antibacterial activity against Staphylococcus aureus ATCC 29213 assessed as inhibition in bacterial growth incubated for 20 to 24 hrs by CLSI based broth microdilution method; type: functional; conditions: Staphylococcus aureus, ATCC 29213; time 20-24 hrs; read-out: MIC
[21] = Inhibition of Escherichia coli topoisomerase 4 incubated for 120 mins by Transcreener ADP2 FI assay
[22] = molecular target: T1, hERG (KCNH2); assay: Inhibition of hERG potassium channel expressed in CHO cells at 1 uM by electrophysiological patch clamp assay relative to control; type: toxicity, cell-based; conditions: CHO cells expressing hERG
[23] = molecular target: Voltage-gated inwardly rectifying potassium channel KCNH2 (Homo sapiens, UniProt Q12809); assay: (§1) Inhibition of hERG potassium channel expressed in CHO cells by electrophysiological patch clamp assay; type: toxicity, cell-based
Chain of Voltage-gated inwardly rectifying potassium channel KCNH2 (Q12809 whole entry): as above

[24] = molecular target: T1, hERG (KCNH2); assay: as §1; type: toxicity, cell-based; conditions: human, CHO cells expressing hERG
[25] = Stability in mouse microsome; type: ADME; conditions: microsomes
[26] = Stability in rat microsome; type: ADME; conditions: microsomes
[27] = Stability in human microsome; type: ADME; conditions: microsomes
[28] = Stability in human hepatocyte; type: ADME, cell-based; conditions: hepatocytes
[29] = molecular target: CYP3A4 (Homo sapiens, UniProt P08684); assay: Inhibition of CYP3A4 (unknown origin) at 10 uM relative to control; type: ADME
Chain of CYP3A4 (P08684 whole entry): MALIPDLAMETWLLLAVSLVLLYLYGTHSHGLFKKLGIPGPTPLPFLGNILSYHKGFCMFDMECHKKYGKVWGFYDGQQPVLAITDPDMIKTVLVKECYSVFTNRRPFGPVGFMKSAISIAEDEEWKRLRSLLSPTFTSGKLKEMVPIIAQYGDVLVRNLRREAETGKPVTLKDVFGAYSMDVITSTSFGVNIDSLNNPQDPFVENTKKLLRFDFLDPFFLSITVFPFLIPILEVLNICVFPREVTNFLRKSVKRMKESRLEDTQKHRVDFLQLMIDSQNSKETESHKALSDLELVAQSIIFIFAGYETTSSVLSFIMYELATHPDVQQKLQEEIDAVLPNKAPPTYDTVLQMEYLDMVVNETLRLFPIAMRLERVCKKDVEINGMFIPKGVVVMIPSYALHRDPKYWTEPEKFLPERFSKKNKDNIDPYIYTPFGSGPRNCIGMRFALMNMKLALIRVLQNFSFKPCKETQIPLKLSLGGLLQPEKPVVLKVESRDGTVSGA

[30] = molecular target: CYP2D6 (Homo sapiens, UniProt P10635); assay: Inhibition of CYP2D6 (unknown origin) at 10 uM relative to control; type: ADME
Chain of CYP2D6 (P10635 whole entry): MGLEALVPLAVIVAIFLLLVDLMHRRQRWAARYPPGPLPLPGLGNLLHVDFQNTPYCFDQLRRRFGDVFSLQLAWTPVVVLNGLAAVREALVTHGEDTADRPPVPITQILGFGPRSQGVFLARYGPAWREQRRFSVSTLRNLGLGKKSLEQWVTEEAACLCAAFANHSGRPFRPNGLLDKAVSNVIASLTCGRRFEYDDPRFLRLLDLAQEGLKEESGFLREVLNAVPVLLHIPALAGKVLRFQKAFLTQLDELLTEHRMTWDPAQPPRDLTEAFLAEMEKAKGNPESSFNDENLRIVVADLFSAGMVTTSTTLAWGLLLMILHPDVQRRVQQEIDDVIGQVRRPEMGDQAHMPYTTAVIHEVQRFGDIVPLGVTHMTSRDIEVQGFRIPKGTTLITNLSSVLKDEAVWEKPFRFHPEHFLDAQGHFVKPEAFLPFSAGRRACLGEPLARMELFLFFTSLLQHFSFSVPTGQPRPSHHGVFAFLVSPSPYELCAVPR

[31] = molecular target: CYP2C9 (Homo sapiens, UniProt P11712); assay: Inhibition of CYP2C9 (unknown origin) at 10 uM relative to control; type: ADME
Chain of CYP2C9 (P11712 whole entry): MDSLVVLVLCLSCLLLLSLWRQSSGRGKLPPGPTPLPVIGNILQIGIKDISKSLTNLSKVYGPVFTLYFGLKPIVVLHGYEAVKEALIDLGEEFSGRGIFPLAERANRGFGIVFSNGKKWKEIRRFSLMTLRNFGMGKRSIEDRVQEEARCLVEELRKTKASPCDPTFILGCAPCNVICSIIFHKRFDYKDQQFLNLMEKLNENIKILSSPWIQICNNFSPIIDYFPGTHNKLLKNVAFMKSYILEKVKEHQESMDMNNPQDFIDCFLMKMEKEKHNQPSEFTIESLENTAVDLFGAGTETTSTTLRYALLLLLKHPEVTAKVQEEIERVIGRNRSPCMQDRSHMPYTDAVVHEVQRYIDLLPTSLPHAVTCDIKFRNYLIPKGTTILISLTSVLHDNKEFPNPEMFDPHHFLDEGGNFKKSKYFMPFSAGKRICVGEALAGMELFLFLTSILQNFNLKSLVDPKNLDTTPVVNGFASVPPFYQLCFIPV

[32] = Cytotoxicity against HEK293 cells; type: toxicity, cell-based; conditions: human
[33] = Protein binding in human plasma assessed as free fraction; type: ADME, cell-free
[34] = Protein binding in mouse plasma assessed as free fraction; type: ADME, cell-free
[35] = Protein binding in rat plasma assessed as free fraction; type: ADME, cell-free
[36] = system: Pseudomonas aeruginosa; assay: Antibacterial activity against pseudomonas aeruginosa ATCC 27853 infected in neutropenic CD-1 lung infection mouse model assessed as reduction in colony forming unit in lung at 15 mg/kg, sc TID administered at 8 hrs interval for 24 hrs; type: functional, organism-based
[37] = system: Pseudomonas aeruginosa; assay: Antibacterial activity against pseudomonas aeruginosa ATCC 27853 infected in neutropenic CD-1 lung infection mouse model assessed as reduction in colony forming unit in lung at 45 mg/kg, sc TID administered for 24 hrs; type: functional, organism-based
[38] = system: Pseudomonas aeruginosa; assay: Bactericidal effect against pseudomonas aeruginosa ATCC 27853 infected in neutropenic CD-1 lung infection mouse model assessed as reduction in colony forming unit in lung at 45 mg/kg, sc TID administered at […] interval for 24 hrs; type: functional
[39] = Drug excretion in Wistar-Han rat urine assessed as parent compound remaining at 3 mg/kg, iv administered upto 48 hrs by LC-MS/MS method; type: ADME, organism-based; conditions: read-out: Drug excretion
[40] = Stability in mouse hepatocyte; type: ADME, cell-based; conditions: hepatocytes
[41] = Stability in rat hepatocyte; type: ADME, cell-based; conditions: hepatocytes
[42] = system: Pseudomonas aeruginosa; assay: Bacteriostatic effect against pseudomonas aeruginosa ATCC 27853 infected in neutropenic CD-1 lung infection mouse model assessed as reduction in colony forming unit at 15 mg/kg, sc TID administered at 8 hrs interval for 24 hrs; type: functional, organism-based

solubility [1]: Soluble | MIC [2]: 0.125 µg/mL (≈ 0.244 µM) | MIC [3]: 2 µg/mL (≈ 3.9 µM) | MIC [4]: 1 µg/mL (≈ 1.95 µM) | MIC [5]: 0.25 µg/mL (≈ 0.488 µM) | IC50 [6]: 60 nM | MIC [8]: 0.06 µg/mL (≈ 0.117 µM) | MIC [9]: ≤ 0.06 µg/mL | MIC [10]: 0.125 µg/mL (≈ 0.244 µM) | MIC [11]: 0.25 µg/mL (≈ 0.488 µM) | MIC [12]: 2 µg/mL (≈ 3.9 µM) | MIC [13]: 0.5 µg/mL (≈ 0.976 µM) | MIC [14]: ≤ 0.06 µg/mL | MIC [15]: 1 µg/mL (≈ 1.95 µM) | MIC [16]: 2 µg/mL (≈ 3.9 µM) | MIC [17]: 1 µg/mL (≈ 1.95 µM) | MIC [18]: 1 µg/mL (≈ 1.95 µM) | MIC [19]: 0.5 µg/mL (≈ 0.976 µM) | MIC [20]: 0.125 µg/mL (≈ 0.244 µM) | IC50 [21]: 30 nM | Stability [25]: Stable | Stability [26]: Stable | Stability [27]: Stable | Stability [28]: Stable | inhibition at 10 µM [29]: < 25% | inhibition at 10 µM [30]: < 25% | inhibition at 10 µM [31]: < 25% | fraction unbound [33]: 0.4 | fraction unbound [34]: 0.4 | fraction unbound [35]: 0.32 | dose excreted at 48 h [39]: 5% | Stability [40]: Stable | Stability [41]: Stable
SMILES: NC1(COc2cc(F)c3c(c2)CC(CNCCC2CN(c4cnc5c(n4)NC(=O)CO5)C(=O)O2)C3)CC1 (configuration not stated)
inhibition at 10 µM [7]: < 1% | inhibition at 1 µM [22]: < 1% | IC50 [23]: > 20000 nM | IC20 [24]: > 10000 nM | CC50 [32]: > 100000 nM | Activity [36]: Active | Activity [37]: Active | Activity [38]: 2.6 log10CFU | Activity [42]: inactive

From ChEMBL document CHEMBL5390317, “Novel Indane-Containing NBTIs with Potent Anti-Gram-Negative Activity and Minimal hERG Inhibition” (ACS Med Chem Lett, 2023)
